Data reported in publication PMC10580319, “Quantitative Imaging of the Action of vCPP2319, an Antimicrobial Peptide from a Viral Scaffold, against Staphylococcus aureus Biofilms of a Clinical Isolate” (ACS Infectious Diseases, 2023).
Where no end group is shown, it is not given here.

Columns and labels:
[1] = system: S. aureus ATCC 6538 biofilms; assay: Crystal violet binding assay, biofilm biomass; assay type: cell-based, Staphylococcus aureus; conditions: 24 h-preformed biofilms, treatment for 4 or 24 h
Experimental: (§1) The effect of vCPP2319 on 24 h-preformed S. aureus biofilms was evaluated using three distinct methods, as previously described:[24] the metabolic activity and viability of biofilm-embedded cells was determined using a resazurin reduction fluorometric assay and a colony count assay, respectively. The total biofilm biomass was quantified by using a crystal violet assay.
Crystal violet is a basic dye that binds to negatively charged molecules, such as those in biofilms EPS matrix and on bacterial membrane surface.[51]S. aureus suspensions at 1 × 10^6 CFU/mL were incubated in a 96-well microtiter clear flat-bottomed polystyrene plate (Corning) for 24 h at 37 °C. […] (EC 3.2.1.1), ranging from 0.0078 to 0.5 mg/mL, for 4 h at 37 °C. Untreated biofilms were used as a control. Biofilms were washed twice with MHB and incubated with 0.25% (v/v in sterile Milli-Q water) crystal violet (Sigma-Aldrich) for 30 min at room temperature. After each sample was washed three times with MHB, crystal violet was solubilized with 95% (v/v) ethanol (Carlo Erba Reagents S.A.S., France) by repeated pipetting. Biofilm biomass was quantified by measuring the absorbance at 590 nm of each sample in an infinite M200 microplate reader (Tecan). The percentage of crystal violet staining was determined relative to the control after blank (0.25% (v/v) crystal violet in sterile Milli-Q water) correction.

[2] = system: S. aureus clinical isolate biofilms; assay: Colony count assay on 24 h-preformed biofilms; assay type: cell-based, Staphylococcus aureus; conditions: mean ± SD
Experimental: as §1
(§2) S. aureus suspensions at 1 × 10^6 CFU/mL were incubated in a sterile 96-well microtiter clear flat-bottomed polystyrene plate (Corning) for 24 h at 37 °C. Nonadherent bacteria were removed after a washing step with MHB, and preformed biofilms were incubated in the absence or presence of vCPP2319 at 25 or 50 μM, for 4 h at 37 °C. Untreated biofilms were used as a control. To evaluate the effect of vCPP2319 redosing on biofilm-embedded bacteria, 24 h-preformed biofilms were incubated in the absence or presence of vCPP2319 at 25 μM, for 4 h at 37 °C. After a washing step with MHB, biofilms were further incubated in the absence or presence of an additional dose of vCPP2319 at 25 or 50 μM, for 4 h at 37 °C. In both experimental settings, after two washing steps with PBS, the biofilms were resuspended in PBS, followed by cell scrapping with a pipet tip as described elsewhere.[49],[50] […] After incubation, the biofilms were removed by cell scrapping with a pipet tip as described elsewhere.[49],[50] In all experimental settings, aliquots were vortexed at high speed, serially diluted in PBS and plated on nutrient-rich trypcase soy agar (TSA) plates (bioMérieux, Marcy l’Etoile, France). After incubation for 24 h at 37 °C, bacterial colonies were counted, and viable bacteria (in CFU/mL) were reported as percentage of the control.

[3] = system: S. aureus ATCC 6538 biofilms; assay: Colony count assay on 24 h-preformed biofilms; assay type: cell-based, Staphylococcus aureus; conditions: 25 or 50 μM, 4 h, colony count (Figure 2C)
Experimental: as §1, §2

[4] = system: S. aureus clinical isolate biofilms; assay: Resazurin reduction fluorometric assay on 24 h-preformed biofilms; assay type: cell-based, Staphylococcus aureus; conditions: 4 h treatment, only at 25 and 50 μM
Experimental: as §1
(§3) Resazurin, the active compound in alamarBlue reagent (Invitrogen), is a blue dye that can be reduced to a pink fluorescent intermediate, resorufin, as a result of cells metabolic activity.[48]S. aureus suspensions were prepared to a final concentration of 1 × 10^6 CFU/mL and incubated in a sterile 96-well microtiter black flat-bottomed polystyrene plate (Corning) for 24 h at 37 °C. […] After washing the biofilms twice with MHB, alamarBlue reagent was added at a final concentration 10% (v/v in MHB) to each sample and its reduction was monitored by measuring the fluorescence intensity (excitation and emission wavelengths were 530 and 590 nm, respectively) of the samples every 5 min during 2 h at 37 °C, in an infinite M200 microplate reader (Tecan). […] The percentage of resazurin reduction was determined relatively to the control, after blank (10% (v/v) alamarBlue reagent in MHB) correction.

[5] = system: S. aureus ATCC 6538 biofilms; assay: as above; assay type: cell-based, Staphylococcus aureus; conditions: 0.78 to 50 μM, 4 h and 24 h treatment, dose-dependent
Experimental: as §1, §3

HMEC-1 cells = assay: Cytotoxicity, CellTiter-Blue cell viability assay; assay type: cell-based, human; conditions: 24 h incubation
Experimental: Human dermal microvascular endothelium cells (HMEC-1, ATCC CRL-3243) (ATCC, Manassas, VA, USA) were cultured as a monolayer using MCDB-131 medium (without L-glutamine) with phenol red (Gibco, Thermo-Fisher, Waltham, MA, USA). The medium was supplemented with 10% (v/v) fetal bovine serum (FBS), 1% (v/v) penicillin/streptomycin (Gibco, Thermo-Fisher), 10 ng/mL epidermal growth factor (EGF), 1 μg/mL hydrocortisone (Sigma-Aldrich, St. Louis, MO, USA), and 10 mM glutamine (ATCC), according to the manufacturer’s instructions. Cells were grown in a humidified atmosphere of 5% CO2 at 37 °C. The cytotoxicity of vCPP2319 toward HMEC-1 cells was determined using CellTiter-Blue Cell Viability Assay (Promega, USA), according to the manufacturer’s instructions. HMEC-1 cells were seeded into a sterile 96-well clear flat-bottomed polystyrene plate (Corning) at 2.5 × 10^4 cells/well and incubated for 24 h at 37 °C. After medium removal, cells were washed twice with PBS. […] The fluorescence intensity was measured with excitation and emission at 560 and 590 nm, respectively, using the infinite M200 microplate reader (Tecan). […] HMEC-1 cells metabolic activity (%) was determined using the following equation: [drawing 2] 2 where FP is the fluorescence intensity of peptide-treated cells, FNC is the fluorescence intensity of negative controls, and FPC is the fluorescence intensity of positive controls. […]

WRRRYRRWRRRRRWRRRPRR-NH2 [vCPP2319]
effect on biofilm biomass [1]: no significant changes | percentage of viable cells ([2]; 25 μM for 4 h, then second treatment at 25 μM for 4 h): 27.6 ± 13.6% | percentage of viable cells ([2]; 25 μM for 4 h, then second treatment at 50 μM for 4 h): 9.4 ± 4.7% | percentage of viable cells ([2]; first treatment 25 μM for 4 h, relative to untreated biofilm): 44.7 ± 4.3% | viability of biofilm-embedded cells [3]: decreased bacterial viability | metabolic activity of biofilm-embedded cells [4]: significantly reduced | metabolic activity of biofilm-embedded cells [5]: significant reduction | effect on metabolic activity of HMEC-1 cells (HMEC-1 cells; 50 μM, highest concentration tested): slight effect | effect on metabolic activity of HMEC-1 cells (HMEC-1 cells; concentrations of up to 25 μM): no effect
